Assay results from patent US20260007681A1, “INDOLE DERIVATIVES AS ESTROGEN RECEPTOR DEGRADERS” (REGENTS OF THE UNIVERSITY OF MICHIGAN, priority 2022, published 2026).
Read-outs that look alike come from different tables or passages of the source.

Experiments:
ER = ER (Homo sapiens (Human), UniProt P03372); assay: In-cell western blot analysis of relative ER percentage (Compounds B1-B278); assay type: cell-based; settings: ER degradation, 16 hours, read-out: ICW DC50
Method: In-cell western blot analysis. Cells are seeded in multi-well plates (e.g., at 40,000 or 10,000 cells/well). Diluted compounds at certain concentration are added (final 0.5% DMSO) and cells are incubated for […] (e.g., 16 hours). Formaldehyde (e.g., PBS:FA=9:1) is added and followed by washing with PBS. The cells are blocked with Licor blocking buffer (Li-Cor). The relative ER percentage in treated cells are obtained by comparing the values of treated wells to those in untreated and DMSO-treated wells as 100%.
In-cell western blot analysis. a. seed cells in black-sided/clear bottom 96- or 384-well plates at 40,000 or 10,000 cells/well, overnight; b. add diluted compounds (final 0.5% DMSO), 16 hours. 16 h later, remove medium, add 100 μL or 25 μL of 3.7-4.0% formaldehyde (PBS:FA=9:1), RT 20 min, no shaking; c. wash with PBS, and permeabilized with 100 μL or 25 μL/well of 1×PBS+0.1% Triton X-100 10 minutes; d. block with 100 μL or 25 μL Licor blocking buffer (Li-Cor), RT 1 h, moderate shaking; d. Add 100 μL or 25 μL of anti-ER (cs-8644, 1:500-1,000)+GAPDH(Millipore MAB374, 1:1000) in Block+0.05% Tween 20. RT 2 h, gentle shaking. Negative control: cells plus secondary antibodies (no primary antibodies); e. wash×4 with PBS +0.05-0.1% Tween 20, gentel shaking; f. anti-rabbit-680 and anti-mouse-800 (both 1:1000 in LiCor block +0.05% Tween20, RT 1 h, gentle shaking, no light. LI-COR: 0.2% to reduce background; g. wash×4 with PBS+0.05% Tween 20, gental shaking; h. add 100 μL or 25 μL of PBS to each well and read on CLX plate reader. The relative ER percentage in treated cells were obtained by comparing the values of treated wells to those in untreated and DMSO-treated wells as 100%.

[1] = Cell growth assay (WST-8) (Compounds B1-B278); assay type: cell-based; settings: T47D cell line, WST-8, 4 days, read-out: Cell Growth Inhibition in T47D cell line IC50
Method: Cell Growth Assay. The cells are seeded at certain concentration (e.g., at 1500/well) in multi-well plates overnight. Cells are subsequently treated with the compounds. A certain period of time (e.g., 4 days) after the compound treatment, 10% WST-8 reagent is added to the culture medium and incubate under certain condiction (e.g., in a CO2 incubator at 37° C. for 2.5 hours). The absorbance is measured on each sample using a microplate reader at certain wavelength (e.g., 450 nm). The relative absorbance is calculated against the vehicle control from three individually repeats.
Cell Growth Assay. The cells were seeded at 1500/well in 96 well plates overnight. One day after the seeding, they were treated with indicated doses of compounds respectively. 4 days after the compound treatment, 10% WST-8 reagent was added to the culture medium and incubate in a CO2 incubator at 37° C. for 2.5 hours. Before reading, the plate was mixed gently on an orbital shaker for one minute to ensure homogeneous distribution of color. The absorbance was measured of each sample using a microplate reader at a wavelength of 450 nm. The relative absorbance was calculated against the vehicle control from three individually repeats.

Chain of ER (P03372 whole entry): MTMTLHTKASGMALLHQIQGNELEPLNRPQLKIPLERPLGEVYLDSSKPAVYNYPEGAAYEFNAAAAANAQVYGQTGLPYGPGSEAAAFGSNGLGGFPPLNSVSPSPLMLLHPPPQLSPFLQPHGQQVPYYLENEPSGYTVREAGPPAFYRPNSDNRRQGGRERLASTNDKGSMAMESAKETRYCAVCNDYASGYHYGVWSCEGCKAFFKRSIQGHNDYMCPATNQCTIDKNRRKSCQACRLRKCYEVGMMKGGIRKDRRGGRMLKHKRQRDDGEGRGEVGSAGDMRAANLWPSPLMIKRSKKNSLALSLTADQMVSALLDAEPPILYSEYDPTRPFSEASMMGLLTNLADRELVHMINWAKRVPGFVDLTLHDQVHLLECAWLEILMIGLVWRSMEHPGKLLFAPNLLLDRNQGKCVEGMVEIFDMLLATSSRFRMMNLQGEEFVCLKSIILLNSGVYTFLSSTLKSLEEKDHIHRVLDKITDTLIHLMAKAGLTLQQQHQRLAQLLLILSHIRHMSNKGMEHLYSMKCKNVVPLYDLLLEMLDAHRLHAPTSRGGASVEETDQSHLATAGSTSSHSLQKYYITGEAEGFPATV

DC50 (ER) [µM] | Compound | IC50 ([1]; 96 h) [µM] | IC50 [1] [µM]
0.01 to 0.1 | C[C@@H]1Cc2c([nH]c3ccccc23)[C@@H](c2cnc(N3CCC4(CC3)OCC(CN3CCN5c6ccc7c(c6OC[C@H]5C3)CN([C@H]3CCC(=O)NC3=O)C7=O)CO4)nc2)N1CC(F)(F)CO [Compound B272, (S)-3-((R)-7-((9-(5-((1R,3R)-2-(2,2-difluoro-3-hydroxypropyl)-3-methyl-2,3,4,9-tetrahydro-1H-pyrido[3,4-b]indol-1-yl)pyrimidin-2-yl)-1,5-dioxa-9-azaspiro[5.5]undecan-3-yl)methyl)-1-oxo-1,3,5,5a,6,7,8,9-octahydro-2H-pyrazino[1′,2′:4,5][1,4]oxazino[2,3-e]isoindol-2-yl)piperidine-2,6-dione] | < 0.001 | –
0.01 to 0.1 | C[C@@H]1Cc2c([nH]c3ccccc23)[C@@H](c2cnc(N3CC4(CC(CN5CCN6c7ccc8c(c7OC[C@H]6C5)CN(C5CCC(=O)NC5=O)C8=O)C4)C3)nc2)N1CC(F)F (stereo partly drawn) [Compound B179, 3-((R)-7-((2-(5-((1R,3R)-2-(2,2-difluoroethyl)-3-methyl-2,3,4,9-tetrahydro-1H-pyrido[3,4-b]indol-1-yl)pyrimidin-2-yl)-2-azaspiro[3.3]heptan-6-yl)methyl)-1-oxo-1,3,5,5a,6,7,8,9-octahydro-2H-pyrazino[1′,2′:4,5][1,4]oxazino[2,3-e]isoindol-2-yl)piperidine-2,6-dione] | > 0.01 | –
> 0.1 | C[C@@H]1Cc2c([nH]c3ccccc23)[C@@H](c2c(F)cc(N3CCC(CN4CCN5c6c(ccc7c6CN(C6CCC(=O)NC6=O)C7=O)OC[C@@H]5C4)CC3)cc2F)N1CC(F)F (stereo partly drawn) [Compound B173, 3-((S)-9-((1-(4-((1R,3R)-2-(2,2-difluoroethyl)-3-methyl-2,3,4,9-tetrahydro-1H-pyrido[3,4-b]indol-1-yl)-3,5-difluorophenyl)piperidin-4-yl)methyl)-3-oxo-1,3,7,7a,8,9,10,11-octahydro-2H-pyrazino[1′,2′:4,5][1,4]oxazino[3,2-e]isoindol-2-yl)piperidine-2,6-dione] | < 0.001 | –
< 0.01 | C[C@@H]1Cc2c([nH]c3ccccc23)[C@@H](c2cnc(N3CC4(CCC(CN5CCN6c7ccc8c(c7OC[C@H]6C5)CN(C5CCC(=O)NC5=O)C8=O)CC4)C3)nc2)N1CC(C)(C)F (stereo partly drawn) [Compound B182, 3-((R)-7-((2-(5-((1R,3R)-2-(2-fluoro-2-methylpropyl)-3-methyl-2,3,4,9-tetrahydro-1H-pyrido[3,4-b]indol-1-yl)pyrimidin-2-yl)-2-azaspiro[3.5]nonan-7-yl)methyl)-1-oxo-1,3,5,5a,6,7,8,9-octahydro-2H-pyrazino[1′,2′:4,5][1,4]oxazino[2,3-e]isoindol-2-yl)piperidine-2,6-dione] | 0.001 to 0.01 | –
< 0.01 | C[C@@H]1Cc2c([nH]c3ccccc23)[C@@H](c2c(F)cc(N3CCC4(CC3)CN(C(=O)CN3CCN5c6ccc7c(c6OC[C@H]5C3)CN(C3CCC(=O)NC3=O)C7=O)C4)cc2F)N1CC(F)F (stereo partly drawn) [Compound B174, 3-((R)-7-(2-(7-(4-((1R,3R)-2-(2,2-difluoroethyl)-3-methyl-2,3,4,9-tetrahydro-1H-pyrido[3,4-b]indol-1-yl)-3,5-difluorophenyl)-2,7-diazaspiro[3.5]nonan-2-yl)-2-oxoethyl)-1-oxo-1,3,5,5a,6,7,8,9-octahydro-2H-pyrazino[1′,2′:4,5][1,4]oxazino[2,3-e]isoindol-2-yl)piperidine-2,6-dione] | < 0.001 | –
0.01 to 0.1 | C[C@@H]1Cc2c([nH]c3ccccc23)[C@@H](c2cnc(N3CCC4(CC3)CC(CN3CCN5c6ccc7c(c6OC[C@H]5C3)CN(C3CCC(=O)NC3=O)C7=O)C4)nc2)N1CC1(F)CC1 (stereo partly drawn) [Compound B261, 3-((R)-7-((7-(5-((1R,3R)-2-((1-fluorocyclopropyl)methyl)-3-methyl-2,3,4,9-tetrahydro-1H-pyrido[3,4-b]indol-1-yl)pyrimidin-2-yl)-7-azaspiro[3.5]nonan-2-yl)methyl)-1-oxo-1,3,5,5a,6,7,8,9-octahydro-2H-pyrazino[1′,2′:4,5][1,4]oxazino[2,3-e]isoindol-2-yl)piperidine-2,6-dione] | 0.001 to 0.01 | –
> 0.1 | C[C@@H]1Cc2c([nH]c3ccccc23)[C@@H](c2c(F)cc(N3CCC(CN4CCN5c6ccc7c(c6OC[C@H]5C4)CN(C4CCC(=O)NC4=O)C7=O)CC3)cc2F)N1CC(C)(C)F (mixture of isomers) [Compound B259, 3-((RS)-7-((1-(3,5-difluoro-4-((1R,3R)-2-(2-fluoro-2-methylpropyl)-3-methyl-2,3,4,9-tetrahydro-1H-pyrido[3,4-b]indol-1-yl)phenyl)piperidin-4-yl)methyl)-1-oxo-1,3,5,5a,6,7,8,9-octahydro-2H-pyrazino[1′,2′:4,5][1,4]oxazino[2,3-e]isoindol-2-yl)piperidine-2,6-dione] | – | < 0.001
> 0.1 | C[C@@H]1Cc2c([nH]c3ccccc23)[C@@H](c2cnc(N3CCC4(CCC(CN5CCN6c7ccc8c(c7OC[C@H]6C5)CN(C5CCC(=O)NC5=O)C8=O)CC4)CC3)nc2)N1CC(C)(C)F (stereo partly drawn) [Compound B162, 3-((R)-7-((3-(5-((1R,3R)-2-(2-fluoro-2-methylpropyl)-3-methyl-2,3,4,9-tetrahydro-1H-pyrido[3,4-b]indol-1-yl)pyrimidin-2-yl)-3-azaspiro[5.5]undecan-9-yl)methyl)-1-oxo-1,3,5,5a,6,7,8,9-octahydro-2H-pyrazino[1′,2′:4,5][1,4]oxazino[2,3-e]isoindol-2-yl)piperidine-2,6-dione] | > 0.01 | –
0.01 to 0.1 | C[C@@H]1Cc2c([nH]c3ccccc23)[C@@H](c2c(F)cc(N3CCC4(CC3)OCC(CN3CCN5c6cc7c(cc6OC[C@@H]5C3)C(=O)N(C3CCC(=O)NC3=O)C7)CO4)cc2F)N1CC(F)(F)CO (stereo partly drawn) [Compound B270, 3-((S)-3-((9-(4-((1R,3R)-2-(2,2-difluoro-3-hydroxypropyl)-3-methyl-2,3,4,9-tetrahydro-1H-pyrido[3,4-b]indol-1-yl)-3,5-difluorophenyl)-1,5-dioxa-9-azaspiro[5.5]undecan-3-yl)methyl)-8-oxo-1,2,3,4,4a,5,8,10-octahydro-9H-pyrazino[1′,2′:4,5][1,4]oxazino[2,3-f]isoindol-9-yl)piperidine-2,6-dione] | < 0.001 | –
0.01 to 0.1 | COc1cc(N2CC3(CCC(CN4CCN5c6cc7c(cc6OC[C@@H]5C4)C(=O)N(C4CCC(=O)NC4=O)C7)CO3)C2)ccc1[C@@H]1c2[nH]c3ccccc3c2C[C@@H](C)N1CC(F)F (stereo partly drawn) [Compound B278, 3-((4aS)-3-((2-(4-((1R,3R)-2-(2,2-difluoroethyl)-3-methyl-2,3,4,9-tetrahydro-1H-pyrido[3,4-b]indol-1-yl)-3-methoxyphenyl)-5-oxa-2-azaspiro[3.5]nonan-7-yl)methyl)-8-oxo-1,2,3,4,4a,5,8,10-octahydro-9H-pyrazino[1′,2′:4,5][1,4]oxazino[2,3-f]isoindol-9-yl)piperidine-2,6-dione] | 0.001 to 0.01 | –

Compound | DC50 (ER) [µM] | IC50 ([1]; 96 h) [µM] | IC50 [1] [µM]
C[C@@H]1Cc2c([nH]c3ccccc23)[C@@H](c2ccc(N3CCC4(CC3)CC(CN3CCC5(CC3)COc3c5ccc5c3CN(C3CCC(=O)NC3=O)C5=O)CO4)cn2)N1CC(F)(F)F (stereo partly drawn) [Compound B145, 3-(1′-((8-(6-((1S,3R)-3-methyl-2-(2,2,2-trifluoroethyl)-2,3,4,9-tetrahydro-1H-pyrido[3,4-b]indol-1-yl)pyridin-3-yl)-1-oxa-8-azaspiro[4.5]decan-3-yl)methyl)-6-oxo-6,8-dihydro-2H,7H-spiro[furo[2,3-e]isoindole-3,4′-piperidin]-7-yl)piperidine-2,6-dionc] | < 0.01 | < 0.001 | –
